For four compounds, Activity and inhibition results are on record in ChEMBL document CHEMBL5653634, “The effect of the PKC inhibitor GF109203X on the release of Ca2+ from internal stores and Ca2+ entry in DDT1 MF-2 cells” (1996).

Active and inactive are the calls of the source. No cut-off for these calls is given here.

The nature of test [1]: Inhibition of PKC in golden hamster DDT1-MF2 cells by measuring calcium 2+ uptake at 10 uM preincubated for 45 mins followed by extracellular calcium 2+ addition measured after 5 mins by liquid scintillation counting analysis (reference value: 100 +/- 6 %). Set-up: species or system Mesocricetus auratus; scale not given: the % may be the effect or the level left. The conditions noted are these: time 50 min.

The nature of test [2]: Inhibition of PKC in golden hamster DDT1-MF2 cells by measuring basal cytoplasmic calcium concentration at 5 uM incubated for 45 mins in presence of extracellular calcium 2+. Set-up: species or system Mesocricetus auratus. The conditions noted are these: 0.75 h.
Test [3] concerns DDT1-MF2. In words: Inhibition of PKC in golden hamster DDT1-MF2 cells assessed as increase in inositol 1,4,5-trisphosphate formation at 5 uM incubated for 45 mins by liquid scintillation counting analysis. It counts as cell-based. The conditions noted are these: Mesocricetus auratus.
Test [4] is described as follows: Inhibition of PKC in golden hamster DDT1-MF2 cells assessed as inhibition of histamine-induced calcium response by measuring maximal cytoplasmic calcium concentration at 5 uM preincubated for 45 mins in presence of extracellular calcium 2+ followed by histamine stimulation. Set-up: species or system Mesocricetus auratus. The conditions noted are these: 0.75 h.

The nature of test [5]: Inhibition of PKC in golden hamster DDT1-MF2 cells assessed as inhibition of histamine-induced calcium response by measuring cytoplasmic calcium concentration at 5 uM preincubated for 45 mins in presence of extracellular calcium 2+ followed by histamine stimulation measured after 5 mins. Further details: species or system Mesocricetus auratus. The conditions noted are these: time 50 min.

Test [6] in a line: Inhibition of PKC in golden hamster DDT1-MF2 cells by measuring basal cytoplasmic calcium concentration at 5 uM incubated for 45 mins in absence of extracellular calcium 2+. Further details: species or system Mesocricetus auratus. The conditions noted are these: 0.75 h.
The nature of test [7]: Inhibition of PKC in golden hamster DDT1-MF2 cells assessed as inhibition of histamine-induced calcium response by measuring cytoplasmic calcium concentration at 5 uM preincubated for 45 mins in absence of extracellular calcium 2+ followed by histamine stimulation. Set-up: species or system Mesocricetus auratus. The conditions noted are these: 0.75 h.

Test [8] relates to DDT1-MF2. The test can be described thus: Inhibition of PKC in golden hamster DDT1-MF2 cells assessed as decrease in histamine-induced inositol 1,4,5-trisphosphate formation at 5 uM incubated for 45 mins followed by histamine stimulation by liquid scintillation counting analysis. It counts as cell-based. The conditions noted are these: Mesocricetus auratus.
Test [9] has as its system DDT1-MF2. The test can be described thus: Inhibition of PKC in golden hamster DDT1-MF2 cells assessed as decrease in histamine-induced inositol 1,4,5-trisphosphate formation at 5 uM incubated for 45 mins in presence of PMA followed by histamine stimulation by liquid scintillation counting analysis. The conditions noted are these: Mesocricetus auratus. It counts as cell-based.

Test [10] in a line: Inhibition of PKC in golden hamster DDT1-MF2 cells by measuring cytoplasmic calcium concentration at 5 uM incubated for 10 mins. The conditions noted are these: […]. Further details: species or system Mesocricetus auratus.
A short description of test [11]: Inhibition of PKC in golden hamster DDT1-MF2 cells by measuring cytoplasmic calcium concentration at 5 uM incubated for 10 mins in presence of LaCl3. Further details: species or system Mesocricetus auratus. The conditions noted are these: […].
Test [12] can be described thus: Inhibition of PKC in golden hamster DDT1-MF2 cells assessed as decrease in histamine-induced calcium release by measuring cytoplasmic calcium concentration at 5 uM incubated for 45 mins in presence of LaCl3. Further details: species or system Mesocricetus auratus. The conditions noted are these: 0.75 h.

In test [13] the test system is DDT1-MF2. In words: Inhibition of PKC in golden hamster DDT1-MF2 cells assessed as decrease in histamine-induced calcium release by measuring cytoplasmic calcium concentration incubated for 45 mins followed by histamine and LaCl3 addition. It counts as cell-based. The conditions noted are these: Mesocricetus auratus.
The test system of test [14] is DDT1-MF2. In words: Inhibition of PKC in golden hamster DDT1-MF2 cells assessed as decrease in thapsigargin-induced calcium release by measuring cytoplasmic calcium concentration at 5 uM incubated for 45 mins followed by thapsigargin and LaCl3 addition. Format: cell-based. The conditions noted are these: Mesocricetus auratus.
Test [15] can be described thus: Inhibition of PKC in golden hamster DDT1-MF2 cells assessed as decrease in thapsigargin-induced calcium release by measuring cytoplasmic calcium concentration at 5 uM incubated for 45 mins followed by thapsigargin and LaCl3 addition measured after 5 mins. Set-up: species or system Mesocricetus auratus. The conditions noted are these: time 50 min.

Test [16] is described as follows: Inhibition of PKC in golden hamster DDT1-MF2 cells assessed as decrease in thapsigargin-induced calcium release by measuring cytoplasmic calcium concentration at 5 uM incubated for 45 mins followed by thapsigargin, PMA and LaCl3 addition measured after 48 hrs. Further details: species or system Mesocricetus auratus. The conditions noted are these: time 2925 min, 48.75 h.

Test [17] in a line: Inhibition of PKC in golden hamster DDT1-MF2 cells assessed as decrease in Ins(1,4,5)P3-induced calcium 2+ efflux at 5 uM incubated for 14 mins by liquid scintillation counting analysis relative to control. The conditions noted are these: Mesocricetus auratus, DDT1-MF2, 14 min.
Test [18] can be described thus: Inhibition of PKC in golden hamster DDT1-MF2 cells assessed as decrease in calcium 2+ efflux at 5 uM incubated for 10 mins by liquid scintillation counting analysis relative to control. The conditions noted are these: Mesocricetus auratus, DDT1-MF2, 10 min.
Test [19] is described as follows: Inhibition of PKC in golden hamster DDT1-MF2 cells by measuring calcium 2+ uptake at 5 uM preincubated for 45 mins followed by extracellular calcium 2+ addition measured after 5 mins by liquid scintillation counting analysis (reference value: 100 +/- 6 %). Set-up: species or system Mesocricetus auratus; scale not given: the % may be the effect or the level left. The conditions noted are these: time 50 min.

Test [20] can be described thus: Inhibition of PKC in golden hamster DDT1-MF2 cells by measuring calcium 2+ uptake at 5 uM preincubated for 45 mins followed by extracellular calcium 2+ and histamine addition measured after 5 mins by liquid scintillation counting analysis (reference value: 100 +/- 6 %). Set-up: species or system Mesocricetus auratus; scale not given: the % may be the effect or the level left. The conditions noted are these: time 50 min.

Test [21] is described as follows: Inhibition of PKC in golden hamster DDT1-MF2 cells by measuring calcium 2+ uptake at 5 uM preincubated for 45 mins followed by extracellular calcium 2+ and thapsigargin addition measured after 5 mins by liquid scintillation counting analysis (reference value: 100 +/- 6 %). Further details: species or system Mesocricetus auratus; scale not given: the % may be the effect or the level left. The conditions noted are these: time 50 min.

The nature of test [22]: Inhibition of PKC in golden hamster DDT1-MF2 cells assessed as decrease in thapsigargin-induced calcium release by measuring basal cytoplasmic calcium concentration at 5 uM incubated for 45 mins followed by thapsigargin and LaCl3 addition measured after 5 mins. Set-up: species or system Mesocricetus auratus. The conditions noted are these: time 50 min.

A short description of test [23]: Inhibition of PKC in golden hamster DDT1-MF2 cells by measuring basal cytoplasmic calcium concentration at 0.5 uM incubated for 5 mins in presence of extracellular calcium 2+. Set-up: species or system Mesocricetus auratus. The conditions noted are these: […].
Test [24] in a line: Inhibition of PKC in golden hamster DDT1-MF2 cells assessed as inhibition of histamine-induced calcium response by measuring maximal cytoplasmic calcium concentration at 0.5 uM preincubated for 5 mins in presence of extracellular calcium 2+ followed by histamine stimulation. The conditions noted are these: […]. Further details: species or system Mesocricetus auratus.

Test [25] can be described thus: Inhibition of PKC in golden hamster DDT1-MF2 cells assessed as inhibition of histamine-induced calcium response by measuring maximal cytoplasmic calcium concentration at 0.5 uM preincubated for 5 mins in presence of extracellular calcium 2+ followed by histamine stimulation measured after 5 mins. Set-up: species or system Mesocricetus auratus. The conditions noted are these: time 10 min.

Test [26] in a line: Inhibition of PKC in golden hamster DDT1-MF2 cells by measuring basal cytoplasmic calcium concentration at 0.5 uM incubated for 5 mins in absence of extracellular calcium 2+. Set-up: species or system Mesocricetus auratus. The conditions noted are these: […].
The nature of test [27]: Inhibition of PKC in golden hamster DDT1-MF2 cells assessed as inhibition of histamine-induced calcium response by measuring cytoplasmic calcium concentration at 0.5 uM preincubated for 5 mins in absence of extracellular calcium 2+ followed by histamine stimulation. Further details: species or system Mesocricetus auratus. The conditions noted are these: […].

The test system of test [28] is DDT1-MF2. The test can be described thus: Inhibition of PKC in golden hamster DDT1-MF2 cells assessed as decrease in histamine-induced inositol 1,4,5-trisphosphate formation at 1 uM incubated for 5 mins followed by histamine stimulation by liquid scintillation counting analysis. Format: cell-based. The conditions noted are these: Mesocricetus auratus.
Test [29] in a line: Inhibition of PKC in golden hamster DDT1-MF2 cells assessed as decrease in histamine-induced inositol 1,4,5-trisphosphate formation by measuring inositol 1,4,5-trisphosphate level measured per 10^6 cells at 1 uM incubated for 48 hrs followed by histamine addition. The conditions noted are these: […]. Further details: species or system Mesocricetus auratus.

Test [30] in a line: Inhibition of PKC in golden hamster DDT1-MF2 cells by measuring inositol 1,4,5-trisphosphate level measured per 10^6 cells at 1 uM incubated for 48 hrs. Set-up: species or system Mesocricetus auratus. The conditions noted are these: […].
Test [31] is described as follows: Inhibition of PKC in golden hamster DDT1-MF2 cells by measuring calcium 2+ uptake at 1 uM preincubated for 45 mins followed by extracellular calcium 2+ addition measured after 5 mins by liquid scintillation counting analysis (reference value: 100 +/- 6 %). Further details: species or system Mesocricetus auratus; scale not given: the % may be the effect or the level left. The conditions noted are these: time 50 min.

In the case of `Cn1cc(C2=C(c3cn(CCCSC(=N)N)c4ccccc34)C(=O)NC2=O)c2ccccc21` [BISINDOLYLMALEIMIDE IX], the Activity in test [1] is on record as 135%.
As to `CN(C)CCCn1cc(C2=C(c3c[nH]c4ccccc34)C(=O)NC2=O)c2ccccc21` [GF-109203], the Activity in test [2] is given as 102 nM; in test [4] it was 63 nM; in [5], 42 nM; in test [6] it was 82 nM; in [7] it was 40 nM; in test [10], 9 nM. The Activity in test [11] was found to be 7 nM; in test [12], 38 nM; in test [15], 68 nM; in [16] it was 73 nM; in test [19], 167%; in [20], 155%. Further, the figures for the Activity in [21] and in test [22] were 238% and 105 nM, respectively. In addition, the inhibition entry in the test with DDT1-MF2 [3] and with DDT1-MF2 [14] was “Active” each time. Also, the inhibition result in the test on DDT1-MF2 [8] and in the test with DDT1-MF2 [9] was “inactive” each time. In addition, the inhibition entry in the test with DDT1-MF2 [13] was “Dose-Dependent Effect”. Besides, the inhibition at 5 µM in test [17] amounted to 58%; in [18] it was 93%.
`CCCCCCCCCCCCCC(=O)O[C@@H]1[C@@H](C)[C@@]2(O)[C@@H](C=C(CO)C[C@]3(O)C(=O)C(C)=C[C@@H]23)[C@@H]2C(C)(C)[C@]12OC(C)=O` [PHORBOL MYRISTATE ACETATE]: the Activity in [23] is recorded as 129 nM; in [24], 50 nM; in [25] it was 0 nM; in [26], 80 nM; in test [27], 53 nM; in [29], 11.5 pmol. The compound also had an Activity in [30] of 11.6 pmol. The inhibition entry with DDT1-MF2 [28] was “Active”.
Turning to `C/C=C(/C)C(=O)O[C@H]1C(C)=C2[C@H]([C@@H]1OC(=O)CCCCCCC)[C@@](C)(OC(C)=O)C[C@H](OC(=O)CCC)[C@@]1(O)[C@H]2OC(=O)[C@@]1(C)O` [THAPSIGARGIN], the Activity in test [31] worked out at 221%.
